Inconclusive results and toxic doses are left out. How the source made its calls: active means survival T/C of 150% or more; inactive means T/C below 125% in these data.
System: CD2F1 mice, L1210 leukemia ip, survival T/C
Test: NCI In Vivo Anticancer Drug Screen. Data for tumor model L1210 Leukemia (intraperitoneal) in CD2F1 (CDF1) mice
Conditions: endpoint: mean survival time, higher = longer survival
Outline: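 In this screen, transplantable tumors were grown in mice given either the compound or its vehicle. Results were expressed as the treated measurement relative to the control measurement.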

[1] = dose: 25.0 mg/kg/injection, schedule: Q04DX003 (ip), vehicle: saline with Tween-80
[2] = dose: 100.0 mg/kg/injection, schedule: Q04DX003 (ip), vehicle: saline with Tween-80

Measured: T/C

COc1cc2c(cc1OC)C1C(=CCC3c4cc(OC)c(OC)cc4CC[N+]31C)C=C2 (stereo not drawn)
inactive: dose: 6.25 mg/kg/injection, schedule: Q04DX003 (ip), vehicle: saline with Tween-80 102 % of control | dose: 12.5 mg/kg/injection, schedule: Q04DX003 (ip), vehicle: saline with Tween-80 102 % of control | [1] 98 % of control

CCOC(=N)CCCl
inactive: [2] 106 % of control | dose: 200.0 mg/kg/injection, schedule: Q04DX003 (ip), vehicle: saline with Tween-80 101 % of control | dose: 400.0 mg/kg/injection, schedule: Q04DX003 (ip), vehicle: saline with Tween-80 97 % of control

CCCCCCCCCCCCn1cnc2c(Cl)ncnc21
inactive: dose: 12.5 mg/kg/injection, schedule: Q01DX005 (ip), vehicle: other 102 % of control | dose: 25.0 mg/kg/injection, schedule: Q01DX005 (ip), vehicle: other 96 % of control | dose: 50.0 mg/kg/injection, schedule: Q01DX005 (ip), vehicle: other 100 % of control | dose: 100.0 mg/kg/injection, schedule: Q01DX005 (ip), vehicle: other 94 % of control | dose: 200.0 mg/kg/injection, schedule: Q01DX005 (ip), vehicle: other 100 % of control

COc1ccc(OC)c2c1CCC(O)(C#N)C2 (stereo not drawn)
inactive: dose: 12.5 mg/kg/injection, schedule: Q01DX009 (ip), vehicle: water 98 % of control | dose: 25.0 mg/kg/injection, schedule: Q01DX009 (ip), vehicle: water 89 % of control

CC(C)C(=O)[O][Sn]([CH2]c1ccccc1)([CH2]c1ccccc1)[CH2]c1ccccc1
inactive: dose: 25.0 mg/kg/injection, schedule: Q01DX009 (ip), vehicle: saline with Tween-80 90 % of control | [1] 95 % of control | dose: 50.0 mg/kg/injection, schedule: Q01DX009 (ip), vehicle: saline with Tween-80 95 % of control | dose: 50.0 mg/kg/injection, schedule: Q04DX003 (ip), vehicle: saline with Tween-80 90 % of control | [2] 87 % of control

O=C1NC(=O)C2CC(Br)C(Br)CC12 (stereo not drawn)
inactive: dose: 5.0 mg/kg/injection, schedule: Q01DX001 (ip), vehicle: saline 103 % of control | dose: 10.0 mg/kg/injection, schedule: Q01DX001 (ip), vehicle: saline 101 % of control | dose: 20.0 mg/kg/injection, schedule: Q01DX001 (ip), vehicle: saline 100 % of control

COC(=O)/C(Br)=C/C(C)=O
inactive: dose: 100.0 mg/kg/injection, schedule: Q01DX001 (ip), vehicle: saline with Tween-80 107 % of control | dose: 200.0 mg/kg/injection, schedule: Q01DX001 (ip), vehicle: saline with Tween-80 95 % of control

O=C1C=CC(=O)N1c1ccccc1N1C(=O)C=CC1=O
inactive: dose: 1.25 mg/kg/injection, schedule: Q01DX009 (ip), vehicle: Klucel (hydroxypropylcellulose) (HPC) 90 % of control | dose: 2.5 mg/kg/injection, schedule: Q01DX009 (ip), vehicle: Klucel (hydroxypropylcellulose) (HPC) 94 % of control

Clc1nnc(Nc2ccccc2)c2ccccc12
inactive: dose: 100.0 mg/kg/injection, schedule: Q04DX003 (ip), vehicle: other 94 % of control | dose: 200.0 mg/kg/injection, schedule: Q04DX003 (ip), vehicle: other 88 % of control | dose: 400.0 mg/kg/injection, schedule: Q04DX003 (ip), vehicle: other 88 % of control

Nc1ncnc2c1c1cncnc1n2C1OC(CO)C(O)C1O (stereo not drawn)
inactive: dose: 12.5 mg/kg/injection, schedule: Q01DX005 (ip), vehicle: distilled water + Tween-80 96 % of control | dose: 25.0 mg/kg/injection, schedule: Q01DX005 (ip), vehicle: distilled water + Tween-80 98 % of control | dose: 50.0 mg/kg/injection, schedule: Q01DX005 (ip), vehicle: distilled water + Tween-80 93 % of control | dose: 100.0 mg/kg/injection, schedule: Q01DX005 (ip), vehicle: distilled water + Tween-80 90 % of control | dose: 200.0 mg/kg/injection, schedule: Q01DX005 (ip), vehicle: distilled water + Tween-80 105 % of control | dose: 400.0 mg/kg/injection, schedule: Q01DX005 (ip), vehicle: distilled water + Tween-80 110 % of control

OCC1OC(n2cc(I)c3c2ncn2ccnc32)C(O)C1O (stereo not drawn)
inactive: dose: 1.56 mg/kg/injection, schedule: Q01DX005 (ip), vehicle: water 92 % of control | dose: 3.13 mg/kg/injection, schedule: Q01DX005 (ip), vehicle: water 92 % of control | dose: 6.25 mg/kg/injection, schedule: Q01DX005 (ip), vehicle: water 97 % of control | dose: 12.5 mg/kg/injection, schedule: Q01DX005 (ip), vehicle: water 104 % of control | dose: 25.0 mg/kg/injection, schedule: Q01DX005 (ip), vehicle: water 100 % of control

O=C(O)C1(C(=O)O)CCC1
inactive: dose: 100.0 mg/kg/injection, schedule: Q04DX002 (ip), vehicle: saline 92 % of control | dose: 200.0 mg/kg/injection, schedule: Q04DX002 (ip), vehicle: saline 111 % of control

CCCCS/C=C\C(=O)OCC
inactive: dose: 100.0 mg/kg/injection, schedule: Q04DX002 (ip), vehicle: saline with Tween-80 102 % of control | dose: 400.0 mg/kg/injection, schedule: Q04DX002 (ip), vehicle: saline with Tween-80 102 % of control
